Read-outs that look alike come from different tables or passages of the source.
Legend:
[1] = system: Plasmodium falciparum 3D7-A10 parasites; test: Stage specificity assay (8-h exposure of synchronized stages, IC50^8h); assay type: cell-based; conditions: for IC50: Plasmodium falciparum
[2] = system: asynchronous 3D7-A10 parasite cultures; test: Standard 72-h exposure asexual blood stage susceptibility assay (IC50^72h); assay type: cell-based, Plasmodium falciparum; conditions: Plasmodium falciparum, 3D7, 72 h, read-out: Overall (72hr assay) Mean IC50 (IC50^72h)
[3] = system: 3D7-A10 or Dd2-B2 parasites; test: Resistance selections (single step, pulsing or ramping); assay type: cell-based, Plasmodium falciparum
[4] = system: 3D7-MR4 trophozoite parasite-infected RBCs; test: Metabolomic profiling (hydrophilic metabolite changes, UHPLC-MS); assay type: cell-based, Plasmodium falciparum
[5] = 10 × IC50^72h, 2.5 hr, trophozoites

CCCOCc1cc(CN2CCN(c3cccc(Cl)c3)CC2)c(O)c2ncccc12 [MMV000787]
Ratio lowest IC50 8hr/IC50 72hr ([1]; 3D7-A10): 0.7
killing in stage specificity assay ([1]; 8-h exposures, survival curves): incomplete killing
IC50 ([1]; 3D7, 8 h, read-out: IC50^8h values at all tested stages, 8-h exposures, all asexual blood stages): > 1 µM
IC50 ([1]; 3D7, read-out: Early rings Mean IC50 (IC50^8h), 8-h exposure 0–8 hr, 3D7-A10, survival at 60 h): 5.74 µM
IC50 ([1]; 3D7, read-out: Early trophozoites Mean IC50 (IC50^8h), 8-h exposure 16–24 hr, 3D7-A10, survival at 60 h): 3.31 µM
IC50 ([1]; 3D7, read-out: Late rings Mean IC50 (IC50^8h), 8-h exposure 8–16 hr, 3D7-A10, survival at 60 h): 7.87 µM
IC50 ([1]; 3D7, read-out: Late trophozoites Mean IC50 (IC50^8h), 8-h exposure 24–32 hr, 3D7-A10, survival at 60 h): 1.35 µM
IC50 ([1]; 3D7, read-out: Schizonts Mean IC50 (IC50^8h), 8-h exposure 32–40 hr, 3D7-A10, survival at 60 h): 5.91 µM
Stage of peak activity (Figure 6) ([1]; period when the parasite was most susceptible (lowest IC50^8h)): late trophozoites
Peak Activity (Table S1) ([1]; stage(s) with the lowest IC50^8h): Late Trophs
IC50 [2]: 1.96 µM
outcome of resistance selections (continuous exposure or pulsing) ([3]; 5 × 10^8 to 1 × 10^9 3D7-A10 or Dd2-B2 parasites, 3–6 × IC50^72h): did not result in MMV000787-resistant parasites
minimum inocula of resistance ([3]; from failed selections in 3D7-A10 / Dd2-B2): above 5 × 10^8 parasites
metabolic signature: increases in the pyrimidine precursors dihydroorotate and N-carbamoyl-L-aspartate (mETC disruption) [4, 5]: observed
orotidine 5-P levels [4, 5]: decreased
Log2(fold changes) 3-phosphoglycerate ([4]; metabolite 3-phosphoglycerate, log2 fold change): -0.5371
Log2(fold changes) 4-Pyridoxic acid ([4]; metabolite 4-Pyridoxic acid, log2 fold change): -0.4654
Log2(fold changes) 4-aminobutyrate ([4]; metabolite 4-aminobutyrate, log2 fold change): 0.0414
Log2(fold changes) 4-phosphopantetheine ([4]; metabolite 4-phosphopantetheine, log2 fold change): 0.0000
Log2(fold changes) 4-phosphopantothenate ([4]; metabolite 4-phosphopantothenate, log2 fold change): -0.5845
Log2(fold changes) 5-aminopentanoic acid ([4]; metabolite 5-aminopentanoic acid, log2 fold change): 0.0000
Log2(fold changes) 5-methyl-THF ([4]; metabolite 5-methyl-THF, log2 fold change): 0.0000
Log2(fold changes) 5-phosphoribosyl-1-pyrophosphate ([4]; metabolite 5-phosphoribosyl-1-pyrophosphate, log2 fold change): 0.0000
Log2(fold changes) 6-phospho-D-gluconate ([4]; metabolite 6-phospho-D-gluconate, log2 fold change): -0.3590
Log2(fold change) HVDD ([4]; metabolite HVDD): -0.3092
Log2(fold change) Hydroxyisocaproic acid ([4]; metabolite Hydroxyisocaproic acid): 0.0000
Log2(fold change) IDP ([4]; metabolite IDP): 0.0000
Log2(fold change) IMP ([4]; metabolite IMP): -0.1140
Log2(fold change) Inositol ([4]; metabolite Inositol): 0.0000
Log2(fold change) Isopentyl-PP ([4]; metabolite Isopentyl-PP): -1.2940
Log2(fold change) L-arginino-succinate ([4]; metabolite L-arginino-succinate): 0.4157
Log2(fold change) LD ([4]; metabolite LD): 0.2463
Log2(fold change) Myristoyl/tetradecanoyl-CoA ([4]; metabolite Myristoyl/tetradecanoyl-CoA): 0.0000
Log2(fold change) N-Acetyl-L-alanine ([4]; metabolite N-Acetyl-L-alanine): -0.3215
Log2(fold change) N-acetyl-L-ornithine ([4]; metabolite N-acetyl-L-ornithine): -0.0825
Log2(fold change) N-acetyl-glucosamine-1/6-phosphate ([4]; metabolite N-acetyl-glucosamine-1/6-phosphate): -0.1305
Log2(fold change) N-acetyl-glutamate ([4]; metabolite N-acetyl-glutamate): -0.2597
Log2(fold change) N-acetyl-glutamine ([4]; metabolite N-acetyl-glutamine): -0.3137
Log2(fold change) N-carbamoyl-L-aspartate ([4]; metabolite N-carbamoyl-L-aspartate): 1.8530
Log2(fold change) NAD+ ([4]; metabolite NAD+): -0.4850
Log2(fold change) NADH ([4]; metabolite NADH): 0.6916
Log2(fold change) NADP+ ([4]; metabolite NADP+): -0.1054
Log2(fold change) NADPH ([4]; metabolite NADPH): 0.8357
Log2(fold change) O-acetyl-L-serine ([4]; metabolite O-acetyl-L-serine): 0.0023
Log2(fold change) Octoluse 8/1P ([4]; metabolite Octoluse 8/1P): -0.4530
Log2(fold change) Octoluse Bisphosphate ([4]; metabolite Octoluse Bisphosphate): -0.4981
Log2(fold change) PD ([4]; metabolite PD): 0.8974
Log2(fold change) PE ([4]; metabolite PE): 0.4326
Log2(fold change) PEE ([4]; metabolite PEE): -0.3726
Log2(fold change) PEEK ([4]; metabolite PEEK): 0.6684
Log2(fold change) PVNF ([4]; metabolite PVNF): -0.7950
Log2(fold change) Pyroglutamic acid ([4]; metabolite Pyroglutamic acid): -0.5088
Log2(fold change) Pyrophosphate ([4]; metabolite Pyrophosphate): 0.0000
Log2(fold change) Ribose-5-phosphate ([4]; metabolite Ribose-5-phosphate): -0.4878
Log2(fold change) S-adenosyl-L-homocysteine ([4]; metabolite S-adenosyl-L-homocysteine): -0.1665
Log2(fold change) S-adenosyl-L-methioninamine ([4]; metabolite S-adenosyl-L-methioninamine): 1.4172
Log2(fold change) S-adenosyl-L-methionine ([4]; metabolite S-adenosyl-L-methionine): 0.0000
Log2(fold change) S-methyl-5'-thioadenosine ([4]; metabolite S-methyl-5'-thioadenosine): 0.1323
Log2(fold change) SD ([4]; metabolite SD): 0.5833
Log2(fold change) SDL ([4]; metabolite SDL): 0.0000
Log2(fold change) SID ([4]; metabolite SID): 0.2266
Log2(fold change) Sedoheptulose bisphosphate ([4]; metabolite Sedoheptulose bisphosphate): -0.5430
Log2(fold change) Thiamine pyrophosphate ([4]; metabolite Thiamine pyrophosphate): -0.2018
Log2(fold changes) UDP-D-glucose ([4]; metabolite UDP-D-glucose, log2 fold change): -0.1946
Log2(fold changes) UDP-D-glucuronate ([4]; metabolite UDP-D-glucuronate, log2 fold change): -0.2169
Log2(fold changes) UDP-N-acetyl-glucosamine ([4]; metabolite UDP-N-acetyl-glucosamine, log2 fold change): -0.3874
Log2(fold changes) UDP ([4]; metabolite UDP, log2 fold change): -0.9589
Log2(fold changes) UMP ([4]; metabolite UMP, log2 fold change): -0.1735
Log2(fold changes) UTP ([4]; metabolite UTP, log2 fold change): 0.0000
Log2(fold change) hydroxyphenylpyruvate ([4]; metabolite hydroxyphenylpyruvate): 0.0000
Log2(fold change) hydroxyproline/Aminolevulinate ([4]; metabolite hydroxyproline/Aminolevulinate): -0.3494
Log2(fold change) hypoxanthine ([4]; metabolite hypoxanthine): -0.2301
Log2(fold change) indole ([4]; metabolite indole): 0.0000
Log2(fold change) inosine ([4]; metabolite inosine): -0.0358
Log2(fold change) isoleucine ([4]; metabolite isoleucine): 0.0000
Log2(fold change) lactate ([4]; metabolite lactate): -0.6338
Log2(fold change) leucine ([4]; metabolite leucine): 0.0000
Log2(fold change) lysine ([4]; metabolite lysine): -0.1255
Log2(fold change) malate ([4]; metabolite malate): 0.0012
Log2(fold change) maleic acid ([4]; metabolite maleic acid): 0.0284
Log2(fold change) methionine ([4]; metabolite methionine): -0.0998
Log2(fold change) myo-inositol ([4]; metabolite myo-inositol): -0.7776
Log2(fold change) nicotinamide mononucleotide ([4]; metabolite nicotinamide mononucleotide): -0.2457
Log2(fold change) nicotinate ([4]; metabolite nicotinate): -0.3114
Log2(fold change) ornithine ([4]; metabolite ornithine): 0.0122
Log2(fold change) orotate ([4]; metabolite orotate): 0.0632
Log2(fold change) orotidine-5'-phosphate ([4]; metabolite orotidine-5'-phosphate): -0.3294
Log2(fold change) oxaloacetate ([4]; metabolite oxaloacetate): -0.6486
Log2(fold change) p-aminobenzoate ([4]; metabolite p-aminobenzoate): 0.0000
Log2(fold change) p-hydroxybenzoate ([4]; metabolite p-hydroxybenzoate): 0.0000
Log2(fold change) pantothenate ([4]; metabolite pantothenate): -0.1388
Log2(fold change) phenylalanine ([4]; metabolite phenylalanine): -0.3732
Log2(fold change) phenylpyruvate ([4]; metabolite phenylpyruvate): 0.0000
Log2(fold change) phosphoenolpyruvate ([4]; metabolite phosphoenolpyruvate): -0.1822
Log2(fold change) prephenate ([4]; metabolite prephenate): 0.5798
Log2(fold change) proline ([4]; metabolite proline): -0.4229
Log2(fold change) pyridoxine ([4]; metabolite pyridoxine): -0.3069
Log2(fold change) pyruvate ([4]; metabolite pyruvate): -1.0960
Log2(fold change) riboflavin ([4]; metabolite riboflavin): -0.1793
Log2(fold change) ribose ([4]; metabolite ribose): -0.0760
Log2(fold change) ribose-phosphate ([4]; metabolite ribose-phosphate): -0.9121
Log2(fold change) ribulose-5-phosphate ([4]; metabolite ribulose-5-phosphate): -0.5577
Log2(fold change) serine ([4]; metabolite serine): -0.1539
Log2(fold change) sn-glycerol-3-phosphate ([4]; metabolite sn-glycerol-3-phosphate): 0.0054
Log2(fold change) succinate/Methylmalonic acid ([4]; metabolite succinate/Methylmalonic acid): -0.5977
Log2(fold change) succinyl-CoA/methylmalonyl-CoA ([4]; metabolite succinyl-CoA/methylmalonyl-CoA): 0.0000
Log2(fold change) taurine ([4]; metabolite taurine): -0.2559
Log2(fold change) thiamine ([4]; metabolite thiamine): -0.2060
Log2(fold change) threonine/homoserine ([4]; metabolite threonine/homoserine): -0.2606
Log2(fold change) thymidine ([4]; metabolite thymidine): 0.0000
Log2(fold changes) thymine ([4]; metabolite thymine, log2 fold change): 0.0000
Log2(fold changes) trehalose-6-Phosphate ([4]; metabolite trehalose-6-Phosphate, log2 fold change): 0.0000
Log2(fold changes) tryptophan ([4]; metabolite tryptophan, log2 fold change): -0.8402
Log2(fold changes) tyrosine ([4]; metabolite tyrosine, log2 fold change): -0.1716
Log2(fold changes) uridine ([4]; metabolite uridine, log2 fold change): 0.0000

Reference: PMC7031696 (Cell chemical biology, 2019)
